Measured values from US20230413824A1, “AGROCHEMICAL COMPOSITION COMPRISING 3-SUBSTITUTED PHENYLAMIDINE COMPOUNDS AND USE THEREOF” (PI INDUSTRIES LIMITED, priority 2020, published 2023).
Read-outs that look alike come from different tables or passages of the source.

What was measured:
Assay type in all cases: in vivo
[1] = test system: Pyricularia oryzae; assay: whole plant or invertebrate; conditions: for pest or weed control at 0.05 ppm / pest or weed control at 0.1 ppm: Pyricularia oryzae, read-out: Observed Efficacy; for Observed Efficacy: single compound, preventive spray, rice
[2] = test system: Alternaria solani; assay: Alternaria solani test in tomato (preventive, glasshouse); conditions: for pest or weed control at 0.05 ppm / pest or weed control at 0.1 ppm: Alternaria solani
[3] = test system: Erysiphe cichoracearum; assay: Erysiphe cichoracearum test in cucumber (preventive, glasshouse); conditions: single compound; for pest or weed control at 0.05 ppm / pest or weed control at 0.1 ppm: Golovinomyces cichoracearum, read-out: Observed Efficacy (%)
[4] = test system: Phakopsora pachyrhizi; assay: Phakopsora pachyrhizi test in soybean (preventive, glasshouse); conditions: single compound; for pest or weed control at 0.05 ppm / pest or weed control at 0.1 ppm: Phakopsora pachyrhizi, read-out: Observed Efficacy (%)
[5] = test system: Botrytis cinerea; assay: Botrytis cinerea test in tomato (preventive, glasshouse); conditions: single compound
[6] = single compound, 0.05 ppm, preventive spray, read-out: Observed Efficacy (%)
[7] = single compound, 0.1 ppm, preventive spray, read-out: Observed Efficacy (%)
[8] = single compound, Conc. 0.05 ppm, preventive spray, read-out: Observed Efficacy
[9] = single compound, Conc. 0.1 ppm, preventive spray, read-out: Observed Efficacy
[10] = Table B3, single compound, Conc. 0.05 ppm, preventive
[11] = Table B3, single compound, Conc. 0.1 ppm, preventive
[12] = Table B4, single compound, Conc. 0.05 ppm, preventive
[13] = single compound, 0.05 ppm, preventive
[14] = single compound, 0.1 ppm, preventive
[15] = 0.05 ppm, preventive spray on cucumber
[16] = 0.05 ppm, preventive spray on soybean
[17] = 0.1 ppm, preventive spray on soybean
[18] = Conc. 0.05 ppm, soybean, preventive, Table D4
[19] = Conc. 0.05 ppm, soybean, preventive, Table D5
[20] = Conc. 0.1 ppm, soybean, preventive, Table D4
[21] = Conc. 0.1 ppm, soybean, preventive, Table D5
[22] = Botrytis cinerea, Conc. 0.05 ppm, preventive spray on tomato, % control vs untreated, read-out: Observed Efficacy (%)
[23] = Botrytis cinerea, Conc. 0.1 ppm, preventive spray on tomato, % control vs untreated, read-out: Observed Efficacy (%)
[24] = Table B4, single compound, Conc. 0.1 ppm, preventive
[25] = single compound, 0.05 ppm, preventive spray
[26] = single compound, 0.1 ppm, preventive spray
[27] = single compound, Conc. 0.1 ppm, preventive spray
[28] = 0.1 ppm, preventive spray on cucumber
[29] = Table F4, Conc. 0.05 ppm, Botrytis cinerea in tomato, preventive
[30] = Table F4, Conc. 0.1 ppm, Botrytis cinerea in tomato, preventive
[31] = Conc. 0.05 ppm, preventive spray on tomato, % control vs untreated
[32] = Conc. 0.1 ppm, preventive spray on tomato, % control vs untreated
[33] = Table F5, Conc. 0.05 ppm, Botrytis cinerea in tomato, preventive
[34] = Table F5, Conc. 0.1 ppm, Botrytis cinerea in tomato, preventive
[35] = Table F4, Conc. 0.1 ppm, Botrytis cinerea in tomato, preventive, read-out: Observed Efficacy (%)

Row | Molecule | pest or weed control at 0.05 ppm [1] [%] | pest or weed control at 0.1 ppm [1] [%] | pest or weed control at 0.05 ppm [2, 6] [%] | pest or weed control at 0.1 ppm [2, 7] [%] | pest or weed control at 0.05 ppm [2, 8] [%] | pest or weed control at 0.1 ppm [2, 9] [%] | Observed Efficacy (%) [2, 10] [%] | Observed Efficacy (%) [2, 11] [%] | Observed Efficacy (%) [2, 12] [%] | Observed Efficacy (%) [2, 13] [%] | Observed Efficacy (%) [2, 14] [%] | Observed Efficacy (%) [4, 18] [%] | Observed Efficacy (%) [4, 20] [%] | pest or weed control at 0.05 ppm [5, 22] [%] | Observed Efficacy (%) [2, 24] [%] | Observed Efficacy (%) [3, 15] [%] | Observed Efficacy (%) [3, 28] [%] | Observed Efficacy (%) [5, 29] [%] | Observed Efficacy (%) [5, 30] [%] | Observed Efficacy (%) [5, 31] [%] | other results
1 | CC(C)(C)C(O)(CCc1ccc(Cl)cc1)Cn1cncn1 (centres unmarked) [Tebuconazole, tebuconazole] | 17 | 36 | 34 | 54 | 34 | 54 | 34 | 54 | 34 | 34 | 54 | 38 | 44 | 35 | – | – | – | – | – | – | pest or weed control at 0.05 ppm [3, 15]: 29%; pest or weed control at 0.05 ppm [4, 16]: 38%; pest or weed control at 0.1 ppm [4, 17]: 44%; Observed Efficacy (%) [4, 19]: 38%; Observed Efficacy (%) [4, 21]: 44%; pest or weed control at 0.1 ppm [5, 23]: 38%
2 | mancozeb | – | – | – | – | – | – | 14 | 16 | 14 | 14 | 16 | 12 | 15 | – | 16 | 24 | 29 | 19 | 24 | 19 | Observed Efficacy (%) [2, 25]: 14%; Observed Efficacy (%) [2, 26]: 16%; Observed Efficacy [2, 27]: 16%; Observed Efficacy (%) ([3]; 0.05 ppm, cucumber, preventive): 24%; Observed Efficacy (%) ([3]; 0.1 ppm, cucumber, preventive): 29%; Observed Efficacy (%) [4, 16]: 12%; Observed Efficacy (%) [4, 17]: 15%; Observed Efficacy (%) [4, 19]: 12%; Observed Efficacy (%) [4, 21]: 15%; Observed Efficacy (%) [5, 32]: 24%
3 | N#Cc1sc2c(=O)c3ccccc3c(=O)c=2sc1C#N [Dithionon] | – | – | – | – | – | – | 21 | 26 | – | – | – | – | – | – | – | – | – | 38 | 45 | – | Observed Efficacy (%) [5, 33]: 38%; Observed Efficacy (%) [5, 34]: 45%
4 | O=C(Nc1ccccc1-c1ccc(Cl)cc1)c1cccnc1Cl [Boscalid, boscalid] | 24 | 37 | 13 | 26 | 13 | 26 | 13 | 26 | – | 13 | 26 | – | 32 | 38 | – | 24 | 32 | 38 | – | – | pest or weed control at 0.05 ppm ([3]; 0.05 ppm, cucumber, preventive): 24%; pest or weed control at 0.1 ppm ([3]; 0.1 ppm, cucumber, preventive): 32%; pest or weed control at 0.1 ppm [4, 17]: 32%; pest or weed control at 0.1 ppm [5, 35]: 52%
5 | COC(=O)N(OC)c1ccccc1COc1ccn(-c2ccc(Cl)cc2)n1 [Pyraclostrobin, pyraclostrobin] | 16 | 24 | 21 | 28 | 21 | 28 | – | 28 | – | – | – | – | – | – | – | – | 24 | – | – | – | pest or weed control at 0.05 ppm [3, 15]: 21%; pest or weed control at 0.1 ppm ([3]; 0.1 ppm, cucumber, preventive): 24%; pest or weed control at 0.05 ppm ([5]; Table F4, Conc. 0.05 ppm, Botrytis cinerea in tomato, preventive, read-out: Observed Efficacy (%)): 38%; pest or weed control at 0.1 ppm [5, 35]: 43%
6 | CC(O)(Cn1cncn1)c1ccc(Oc2ccc(Cl)cc2)cc1C(F)(F)F (centres unmarked) [Mefentrifluconazole, mefentrifluconazole] | – | – | – | – | – | – | 12 | 26 | 12 | 12 | 26 | – | – | – | 26 | 21 | 24 | 31 | 38 | 31 | Observed Efficacy ([1]; Conc. 0.05 ppm): 21%; Observed Efficacy ([1]; Conc. 0.1 ppm): 24%; Observed Efficacy (%) [2, 25]: 12%; Observed Efficacy (%) [2, 26]: 26%; Observed Efficacy ([2]; single compound, Conc. 0.05 ppm, preventive spray): 12%; Observed Efficacy [2, 27]: 26%; Observed Efficacy (%) ([3]; 0.1 ppm, cucumber, preventive): 24%; Observed Efficacy (%) [5, 32]: 38%
7 | OC(Cc1ccccc1Cl)(Cn1nc[nH]c1=S)C1(Cl)CC1 (centres unmarked) [Prothioconazole, prothioconazole] | 17 | 33 | 20 | 31 | 20 | 31 | 20 | 31 | 20 | 20 | 31 | – | – | 36 | 31 | – | – | 36 | 44 | – | pest or weed control at 0.01 ppm ([5]; Botrytis cinerea, Conc. 0.01 ppm, preventive spray on tomato, % control vs untreated, read-out: Observed Efficacy (%)): 44%; pest or weed control at 0.1 ppm [5, 23]: 44%
8 | CC1CC(C)(C)c2c(F)ccc(NC(=O)c3cn(C)nc3C(F)F)c21 (centres unmarked) [Fluindapyr, 3-(difluoromethyl)-N-(7-fluoro-1,1,3-trimethyl-2,3-dihydro-1H-inden-4-yl)-1-methyl-1H-pyrazole-4-carboxamide] | 11 | – | 14 | 29 | – | – | 14 | 29 | 14 | 14 | 29 | 20 | 30 | 27 | 29 | 29 | 38 | 27 | 41 | – | pest or weed control at 0.05 ppm ([3]; 0.05 ppm, cucumber, preventive): 29%; pest or weed control at 0.1 ppm ([3]; 0.1 ppm, cucumber, preventive): 38%; pest or weed control at 0.05 ppm [4, 16]: 20%; pest or weed control at 0.1 ppm [4, 17]: 30%; Observed Efficacy (%) [4, 21]: 30%; pest or weed control at 0.1 ppm [5, 23]: 41%; Observed Efficacy (%) [5, 33]: 27%; Observed Efficacy (%) [5, 34]: 41%
9 | metiram | – | – | – | – | – | – | – | – | 26 | – | – | 17 | 37 | – | 30 | 47 | 55 | 40 | 57 | 40 | Observed Efficacy ([1]; Conc. 0.05 ppm): 16%; Observed Efficacy ([1]; Conc. 0.1 ppm): 18%; Observed Efficacy (%) [2, 25]: 26%; Observed Efficacy (%) [2, 26]: 30%; Observed Efficacy (%) ([3]; 0.05 ppm, cucumber, preventive): 47%; Observed Efficacy (%) ([3]; 0.1 ppm, cucumber, preventive): 55%; Observed Efficacy (%) [4, 16]: 17%; Observed Efficacy (%) [5, 32]: 57%
10 | CNC(=O)/C(=N/OC)c1ccccc1Oc1ccccc1 [Metaminostorbin] | – | – | – | – | – | – | – | – | – | – | – | – | – | – | – | – | – | – | – | 28 | Observed Efficacy (%) [4, 16]: 45%; Observed Efficacy (%) [4, 17]: 56%; Observed Efficacy (%) [5, 32]: 40%
